The supplement of paper PMC10307832

How the values were obtained:
Experiment in all cases: relative viability (nuclei count vs DMSO), 5 days (fraction); higher = more cells survive
ALW-II-49-7 + Phenformin = compound: Cc1ccc(C(=O)Nc2cccc(C(F)(F)F)c2)cc1Nc1cncc(C(N)=O)c1 [ALW-II-49-7] + N=C(N)NC(=N)NCCc1ccccc1 [Phenformin] (partner 250 µM)
Method in brief: (§1)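 Relative viability is defined as nuclei in treated wells over nuclei in vehicle wells. Duplicate plates were run and medians reported. Lung cancer cell lines in 1536-well plates were dosed by pin tool one day after seeding, with one drug or with a fixed anchor-drug dose plus five library-drug doses (not always all listed) in √10 steps, and nuclei were counted after 5 days.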

ALW-II-49-7 + AZD7762 = compound: Cc1ccc(C(=O)Nc2cccc(C(F)(F)F)c2)cc1Nc1cncc(C(N)=O)c1 [ALW-II-49-7] + NC(=O)Nc1cc(-c2cccc(F)c2)sc1C(=O)N[C@H]1CCCNC1 [AZD7762] (partner 0.2 µM)
Method in brief: as §1

ALW-II-49-7 + Vorinostat = compound: Cc1ccc(C(=O)Nc2cccc(C(F)(F)F)c2)cc1Nc1cncc(C(N)=O)c1 [ALW-II-49-7] + O=C(CCCCCCC(=O)Nc1ccccc1)NO [Vorinostat] (partner 1 µM)
Method in brief: as §1

Dasatinib + Olaparib = compound: Cc1nc(Nc2ncc(C(=O)Nc3c(C)cccc3Cl)s2)cc(N2CCN(CCO)CC2)n1 [Dasatinib] + O=C(c1cc(Cc2n[nH]c(=O)c3ccccc23)ccc1F)N1CCN(C(=O)C2CC2)CC1 [Olaparib] (partner 8 µM)
Method in brief: as §1

Cell Line | relative viability (ALW-II-49-7 + Phenformin; first compound 0.08 µM) | relative viability (ALW-II-49-7 + Phenformin; first compound 0.253 µM) | relative viability (ALW-II-49-7 + Phenformin; first compound 0.8 µM) | relative viability (ALW-II-49-7 + Phenformin; first compound 2.53 µM) | relative viability (ALW-II-49-7 + Phenformin; first compound 8 µM) | relative viability (ALW-II-49-7 + AZD7762; first compound 0.08 µM) | relative viability (ALW-II-49-7 + AZD7762; first compound 0.253 µM) | relative viability (ALW-II-49-7 + AZD7762; first compound 0.8 µM) | relative viability (ALW-II-49-7 + AZD7762; first compound 2.53 µM) | relative viability (ALW-II-49-7 + AZD7762; first compound 8 µM) | relative viability (ALW-II-49-7 + Vorinostat; first compound 0.08 µM) | relative viability (ALW-II-49-7 + Vorinostat; first compound 0.253 µM) | relative viability (ALW-II-49-7 + Vorinostat; first compound 0.8 µM) | relative viability (ALW-II-49-7 + Vorinostat; first compound 2.53 µM) | relative viability (ALW-II-49-7 + Vorinostat; first compound 8 µM) | relative viability (Dasatinib + Olaparib; first compound 0.005 µM) | relative viability (Dasatinib + Olaparib; first compound 0.01581 µM) | relative viability (Dasatinib + Olaparib; first compound 0.05 µM) | relative viability (Dasatinib + Olaparib; first compound 0.1581 µM) | relative viability (Dasatinib + Olaparib; first compound 0.5 µM)
NCI-H1355 | 0.457 | 0.4 | 0.4 | 0.443 | 0.379 | 0.71 | 0.805 | 0.738 | 0.695 | 0.606 | 0.63 | 0.618 | 0.615 | 0.591 | 0.597 | 0.747 | 0.541 | 0.73 | 0.582 | 0.442
NCI-H1395 | 0.438 | 0.512 | 0.419 | 0.475 | 0.428 | 0.381 | 0.43 | 0.364 | – | 0.362 | 0.649 | 0.699 | 0.733 | – | 0.569 | 0.431 | 0.46 | 0.376 | 0.355 | 0.311
NCI-H1437 | 0.266 | 0.297 | 0.301 | 0.297 | 0.263 | 1.02 | 1.15 | 1.01 | 0.99 | 0.873 | 0.831 | 0.926 | 0.822 | 0.756 | 0.699 | 0.636 | 0.624 | 0.656 | 0.566 | 0.532
NCI-H1651 | 0.345 | 0.312 | 0.376 | 0.317 | 0.321 | 0.465 | 0.466 | 0.474 | 0.397 | 0.317 | 0.576 | 0.665 | 0.579 | 0.54 | 0.555 | 0.178 | 0.175 | 0.174 | 0.17 | 0.16
NCI-H1666 | 0.565 | 0.568 | 0.58 | 0.703 | 0.653 | 0.858 | 0.855 | 0.822 | 0.839 | 0.77 | 0.903 | 1.07 | 1.11 | 0.971 | 1 | 0.756 | 0.752 | 0.73 | 0.782 | 0.676
NCI-H1734 | 0.345 | 0.359 | 0.385 | 0.381 | 0.335 | 0.588 | 0.562 | 0.544 | 0.483 | 0.55 | 0.763 | 0.8 | 0.78 | 0.795 | 0.727 | 0.601 | 0.479 | 0.509 | 0.367 | 0.196
NCI-H1755 | 0.584 | 0.627 | 0.612 | 0.55 | 0.405 | 0.543 | 0.497 | 0.379 | 0.432 | 0.382 | 0.88 | 0.83 | 0.783 | 0.685 | 0.608 | 0.806 | 0.577 | 0.68 | 0.408 | 0.279
NCI-H1793 | 0.41 | 0.35 | 0.258 | 0.302 | 0.297 | 0.412 | 0.436 | 0.487 | 0.417 | 0.289 | 0.816 | 0.811 | 0.616 | 0.798 | 0.431 | 0.69 | 0.404 | 0.385 | 0.367 | 0.521
NCI-H1915 | 0.333 | 0.32 | 0.364 | 0.353 | 0.342 | 0.675 | 0.678 | 0.688 | 0.636 | 0.477 | 0.585 | 0.483 | 0.498 | 0.348 | 0.256 | 0.267 | 0.231 | 0.235 | 0.151 | 0.149
NCI-H1944 | 0.193 | 0.231 | 0.18 | 0.176 | 0.138 | 0.801 | 0.614 | 0.359 | 0.458 | 0.498 | 0.659 | 0.613 | 0.497 | 0.478 | 0.377 | 0.415 | 0.298 | 0.332 | 0.191 | 0.135
NCI-H1975 | 0.393 | 0.461 | 0.39 | 0.415 | 0.412 | 0.743 | 0.815 | 0.673 | – | 0.589 | 0.713 | 0.686 | 0.643 | 0.66 | 0.542 | 0.707 | 0.723 | 0.706 | 0.448 | 0.216
NCI-H1993 | 0.535 | 0.546 | 0.542 | 0.544 | 0.502 | 0.981 | 0.674 | 0.722 | 0.812 | 0.622 | 0.843 | 0.72 | 0.837 | 0.828 | 0.796 | 1.08 | 1.13 | 1.23 | 0.895 | 0.794
